For 19 molecules, Ki results are on record in ChEMBL document CHEMBL1128768, “Structure-activity relationships of tricyclic quinoxalinediones as potent antagonists for the glycine binding site of the NMDA receptor 1” (Bioorg Med Chem Lett, 1995).

The target in the experiment is Glutamate receptor ionotropic, NMDA 1 (Rattus norvegicus, UniProt P35439). Briefly: Affinity measured by using [3H]5,7-dichlorokynurenic acid (DCKA) for the glycine binding site of NMDA receptor.
What is called Ki is the dissociation constant of the complex between target and ligand, obtained from inhibition or displacement. Read a low Ki as tighter binding. `C[C@H]1C[C@@H](CC(=O)Nc2ccccc2)n2c(=O)c(=O)[nH]c3cc(Br)cc1c32` registered a Ki of 17.1 nM. That is a double-digit nanomolar value.

`C[C@@]1(CC(=O)O)CCc2cc(Br)cc3[nH]c(=O)c(=O)n1c23` returned a Ki of 451 nM. For `C[C@H]1C[C@@H](CC(=O)O)n2c(=O)c(=O)[nH]c3cc(Br)cc1c32`, the Ki was 42 nM. Next, `CC[C@H]1Cc2cc(Br)cc3[nH]c(=O)c(=O)n(c23)[C@@H]1CC(=O)O`: 1.4 nM; `C[C@@H]1C[C@@H](CC(=O)O)n2c(=O)c(=O)[nH]c3cc(Br)cc1c32`: 38.3 nM. Turning to `CC(C)[C@H]1Cc2cc(Br)cc3[nH]c(=O)c(=O)n(c23)[C@@H]1CC(=O)O`, affinity was put at a Ki of 8.4 nM.

`C[C@H]1Cc2cc(Br)cc3[nH]c(=O)c(=O)n(c23)[C@@H]1CC(=O)Nc1ccccc1` showed a Ki of 3 nM. Next, `C[C@@]1(CC(=O)Nc2ccccc2)CCc2cc(Br)cc3[nH]c(=O)c(=O)n1c23`: 760 nM.

Regarding `C[C@@H]1Cc2cc(Br)cc3[nH]c(=O)c(=O)n(c23)[C@@H]1CC(=O)O`, affinity was put at a Ki of 29.6 nM. Molecule `O=C(O)C[C@@H]1CCc2cc(Br)cc3[nH]c(=O)c(=O)n1c23` registered a Ki of 9.9 nM. `O=C(C[C@@H]1CCc2cc(Br)cc3[nH]c(=O)c(=O)n1c23)Nc1ccccc1` had an inhibition constant Ki of 2.6 nM. Against the preceding molecule, the Ki is about 3.8-fold lower.

The molecule `CC[C@H]1Cc2cc(Br)cc3[nH]c(=O)c(=O)n(c23)[C@@H]1CC(=O)Nc1ccccc1` registered a Ki of 3.8 nM. For the molecule `C[C@@H]1Cc2cc(Br)cc3[nH]c(=O)c(=O)n(c23)[C@@H]1CC(=O)Nc1ccccc1`, the Ki amounted to 21 nM. Against the preceding molecule, the Ki is about 5.5-fold higher. Consider `C[C@H]1Cc2cc(Br)cc3[nH]c(=O)c(=O)n(c23)[C@@H]1CC(=O)O`, for which the Ki amounted to 3.3 nM. This Ki is about 6.4-fold lower than that of the molecule before.

`C[C@@H]1C[C@@H](CC(=O)Nc2ccccc2)n2c(=O)c(=O)[nH]c3cc(Br)cc1c32`: the affinity corresponds to a Ki of 7.4 nM.

Regarding `CC(C(=O)O)[C@@H]1CCc2cc(Br)cc3[nH]c(=O)c(=O)n1c23` (stereo in doubt; 23a), the Ki came out at 241 nM.

In turn, `CC(C(=O)Nc1ccccc1)[C@@H]1CCc2cc(Br)cc3[nH]c(=O)c(=O)n1c23` (stereo in doubt; 23b) gave a Ki of 665 nM.

`CC(C(=O)O)[C@@H]1CCc2cc(Br)cc3[nH]c(=O)c(=O)n1c23` (stereo in doubt; 24a) had a Ki of 300 nM. `CC(C(=O)Nc1ccccc1)[C@@H]1CCc2cc(Br)cc3[nH]c(=O)c(=O)n1c23` (stereo in doubt; 24b) registered a Ki of 590 nM. Compared with the last molecule, the Ki is about 2-fold higher.
